EC50 and Emax data for 15 compounds are collected here from US20240208992A1, “MACROCYCLES AS CFTR MODULATORS” (Idorsia Pharmaceuticals Ltd, priority 2021, published 2024).

The target of this test is human F508del-CFTR (Homo sapiens, UniProt P13569, DEL508-508). Kind of test: F508del-CFTR cell surface expression (corrector activity), DiscoveRx ß-galactosidase complementation chemiluminescence assay in recombinant U2OS cell line.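 On all read-outs here: U2OS cells co-expressing ProLink-tagged F508del-CFTR and a membrane-anchored enzyme acceptor, where more surface CFTR restores β-galactosidase activity measured by chemiluminescence.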 As to conditions: for EC50: EC50, F508del-CFTR cell surface expression, U2OS cells, 16h compound incubation, geomean values; for Emax: U2OS, in relation to Emax of corrector lumacaftor (=100%), arithmetic mean values.
Sequence of human F508del-CFTR (P13569 with tags, fused parts or gaps DEL508-508): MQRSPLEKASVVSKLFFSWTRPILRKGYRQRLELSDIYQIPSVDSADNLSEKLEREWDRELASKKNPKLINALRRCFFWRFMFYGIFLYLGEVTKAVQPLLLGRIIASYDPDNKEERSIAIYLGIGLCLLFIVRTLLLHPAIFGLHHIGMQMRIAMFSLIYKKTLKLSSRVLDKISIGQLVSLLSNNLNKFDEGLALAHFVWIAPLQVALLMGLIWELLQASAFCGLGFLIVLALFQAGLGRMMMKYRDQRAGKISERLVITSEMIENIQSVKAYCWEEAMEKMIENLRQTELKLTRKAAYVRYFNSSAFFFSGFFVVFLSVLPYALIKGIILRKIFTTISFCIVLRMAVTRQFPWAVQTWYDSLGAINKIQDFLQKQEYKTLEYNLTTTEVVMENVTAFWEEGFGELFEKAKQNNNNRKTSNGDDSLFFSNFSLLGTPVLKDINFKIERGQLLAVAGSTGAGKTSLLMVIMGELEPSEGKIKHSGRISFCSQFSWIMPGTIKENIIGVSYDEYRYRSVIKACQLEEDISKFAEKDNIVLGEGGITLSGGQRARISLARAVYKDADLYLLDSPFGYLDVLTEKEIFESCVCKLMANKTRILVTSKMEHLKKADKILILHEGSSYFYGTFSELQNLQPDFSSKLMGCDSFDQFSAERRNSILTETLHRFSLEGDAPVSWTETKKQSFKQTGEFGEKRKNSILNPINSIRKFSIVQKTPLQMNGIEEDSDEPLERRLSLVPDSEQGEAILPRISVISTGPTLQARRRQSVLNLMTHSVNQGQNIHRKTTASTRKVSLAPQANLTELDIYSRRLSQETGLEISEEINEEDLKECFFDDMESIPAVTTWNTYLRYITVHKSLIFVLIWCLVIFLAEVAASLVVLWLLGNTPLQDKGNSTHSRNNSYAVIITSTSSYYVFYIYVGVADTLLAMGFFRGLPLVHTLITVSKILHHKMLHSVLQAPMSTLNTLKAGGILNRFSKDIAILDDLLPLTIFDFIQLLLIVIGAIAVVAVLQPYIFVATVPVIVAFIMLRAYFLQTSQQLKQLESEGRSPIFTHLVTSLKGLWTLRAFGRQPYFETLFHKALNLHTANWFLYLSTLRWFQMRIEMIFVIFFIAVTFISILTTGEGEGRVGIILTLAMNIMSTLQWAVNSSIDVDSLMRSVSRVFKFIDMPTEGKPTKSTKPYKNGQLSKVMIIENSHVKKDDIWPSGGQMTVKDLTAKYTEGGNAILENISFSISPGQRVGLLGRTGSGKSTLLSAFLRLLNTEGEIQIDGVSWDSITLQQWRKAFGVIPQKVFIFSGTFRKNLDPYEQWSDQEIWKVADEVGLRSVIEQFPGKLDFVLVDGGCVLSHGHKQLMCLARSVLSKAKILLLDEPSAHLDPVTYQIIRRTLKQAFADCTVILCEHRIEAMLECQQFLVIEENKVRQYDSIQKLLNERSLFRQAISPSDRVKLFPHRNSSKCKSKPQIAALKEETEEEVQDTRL

Consider `Cc1cc(CCNC(=O)[C@@H]2CC(=O)N(C)[C@@H](CC(C)C)C(=O)N(C[C@@H]3COc4ccccc4C3)CC(=O)N[C@H](Cc3ccccc3)COc3cnc4ccccc4c3C(=O)N2)on1` [Example 705, (3S,7S,13R)-13-benzyl-9-(((R)-chroman-3-yl)methyl)-7-isobutyl-6-methyl-N-(2-(3-methylisoxazol-5-yl)ethyl)-1,5,8,11-tetraoxo-1,2,3,4,5,6,7,8,9,10,11,12,13,14-tetradecahydro-[1]oxa[4,7,10,14]tetraazacycloheptadecino[17,16-c]quinoline-3-carboxamide], for which the EC50 was 305 nM and the Emax amounted to 193%.
The like results for `Cc1cc(CCNC(=O)[C@@H]2CC(=O)N(C)[C@@H](CC(C)C)C(=O)N(C[C@H]3CCCC(C)(C)O3)CC(=O)N[C@H](Cc3ccccc3)COc3cnc4ccccc4c3C(=O)N2)on1` [Example 706, (3S,7S,13R)-13-benzyl-9-(((R)-6,6-dimethyltetrahydro-2H-pyran-2-yl)methyl)-7-isobutyl-6-methyl-N-(2-(3-methylisoxazol-5-yl)ethyl)-1,5,8,11-tetraoxo-1,2,3,4,5,6,7,8,9,10,11,12,13,14-tetradecahydro-[1]oxa[4,7,10,14]tetraazacycloheptadecino[17,16-c]quinoline-3-carboxamide] were, in that order, 707 nM and 162%.
On to `Cc1cc(CCNC(=O)[C@@H]2CC(=O)N(C)[C@@H](CC(C)C)C(=O)N(C[C@@H]3CCCC(C)(C)O3)CC(=O)N[C@H](Cc3ccccc3)COc3cnc4ccccc4c3C(=O)N2)on1` [Example 707, (3S,7S,13R)-13-benzyl-9-(((S)-6,6-dimethyltetrahydro-2H-pyran-2-yl)methyl)-7-isobutyl-6-methyl-N-(2-(3-methylisoxazol-5-yl)ethyl)-1,5,8,11-tetraoxo-1,2,3,4,5,6,7,8,9,10,11,12,13,14-tetradecahydro-[1]oxa[4,7,10,14]tetraazacycloheptadecino[17,16-c]quinoline-3-carboxamide], for which the EC50 turned out to be 502 nM and the Emax is 305%.
The like results for `Cc1cc(CCNC(=O)[C@@H]2CC(=O)N(C)[C@@H](CC(C)C)C(=O)N(C)C3(CCCC3)C(=O)N[C@H](Cc3ccccc3)COc3cnc4ccccc4c3C(=O)N2)on1` [Example 708, (3′S,7′S,13′R)-13′-benzyl-7′-isobutyl-6′,9′-dimethyl-N-(2-(3-methylisoxazol-5-yl)ethyl)-1′,5′,8′,11′-tetraoxo-2′,3′,4′,5′,6′,7′,8′,9′,11′,12′,13′,14′-dodecahydro-1′H-spiro[cyclopentane-1,10′-[1]oxa[4,7,10,14]tetraazacycloheptadecino[17,16-c]quinoline]-3′-carboxamide] were, in that order, 874 nM and 195%.
The like results for `Cc1cc(CCNC(=O)[C@@H]2CC(=O)N(C)[C@@H](CC(C)C)C(=O)N(C)[C@H](CC3CCCCC3)C(=O)N[C@H](Cc3ccccc3)COc3cnc4ccccc4c3C(=O)N2)on1` [Example 709, (3S,7S,10R,13R)-13-benzyl-10-(cyclohexylmethyl)-7-isobutyl-6,9-dimethyl-N-(2-(3-methylisoxazol-5-yl)ethyl)-1,5,8,11-tetraoxo-1,2,3,4,5,6,7,8,9,10,11,12,13,14-tetradecahydro-[1]oxa[4,7,10,14]tetraazacycloheptadecino[17,16-c]quinoline-3-carboxamide] were, in that order, 47 nM and 284%.
The like results for `Cc1cc(CCNC(=O)[C@@H]2CC(=O)N(C)[C@@H](CC(C)C)C(=O)N(C)[C@H](C3CCCC3)C(=O)N[C@H](Cc3ccccc3)COc3cnc4ccccc4c3C(=O)N2)on1` [Example 710, (3S,7S,10R,13R)-13-benzyl-10-cyclopentyl-7-isobutyl-6,9-dimethyl-N-(2-(3-methylisoxazol-5-yl)ethyl)-1,5,8,11-tetraoxo-1,2,3,4,5,6,7,8,9,10,11,12,13,14-tetradecahydro-[1]oxa[4,7,10,14]tetraazacycloheptadecino[17,16-c]quinoline-3-carboxamide] were, in that order, 149 nM and 280%.
With `Cc1cc(CCNC(=O)[C@@H]2CC(=O)N(C)[C@@H](CC(C)C)C(=O)N(C)C3(CC(F)(F)C3)C(=O)N[C@H](Cc3ccccc3)COc3cnc4ccccc4c3C(=O)N2)on1` [Example 711, (3′S,7′S,13′R)-13′-benzyl-3,3-difluoro-7′-isobutyl-6′,9′-dimethyl-N-(2-(3-methylisoxazol-5-yl)ethyl)-1′,5′,8′,11′-tetraoxo-2′,3′,4′,5′,6′,7′,8′,9′,11′,12′,13′,14′-dodecahydro-1′H-spiro[cyclobutane-1,10′-[1]oxa[4,7,10,14]tetraazacycloheptadecino[17,16-c]quinoline]-3′-carboxamide], the EC50 is 778 nM and the Emax is 301%.
On the same counts, the results for `Cc1cc(CCNC(=O)[C@@H]2CC(=O)N(C)[C@@H](CC(C)C)C(=O)N(C)[C@H](COCc3ccccc3)C(=O)N[C@H](Cc3ccccc3)COc3ccc4ccccc4c3C(=O)N2)on1` [Example 714, (3S,7S,10R,13R)-13-benzyl-10-((benzyloxy)methyl)-7-isobutyl-6,9-dimethyl-N-(2-(3-methylisoxazol-5-yl)ethyl)-1,5,8,11-tetraoxo-1,2,3,4,5,6,7,8,9,10,11,12,13,14-tetradecahydronaphtho[1,2-p][1]oxa[4,7,10,14]tetraazacycloheptadecine-3-carboxamide] are 36 nM and 410%.
The like results for `COc1cccc(CCNC(=O)[C@@H]2CC(=O)N(C)[C@@H](CC(C)C)C(=O)N(C)[C@@H](COCc3ccccc3)C(=O)N[C@H](Cc3ccccc3)COc3ccc4ccccc4c3C(=O)N2)c1` [Example 715, (3S,7S,10S,13R)-13-benzyl-10-((benzyloxy)methyl)-7-isobutyl-N-(3-methoxyphenethyl)-6,9-dimethyl-1,5,8,11-tetraoxo-1,2,3,4,5,6,7,8,9,10,11,12,13,14-tetradecahydronaphtho[1,2-p][1]oxa[4,7,10,14]tetraazacycloheptadecine-3-carboxamide] were, in that order, 64 nM and 283%.
The like results for `Cc1cc(CCNC(=O)[C@@H]2CC(=O)N(C)[C@@H](CC(C)C)C(=O)N(C)[C@@H](COCc3ccccc3)C(=O)N[C@H](Cc3ccccc3)COc3ccc4ccccc4c3C(=O)N2)on1` [Example 716, (3S,7S,10S,13R)-13-benzyl-10-((benzyloxy)methyl)-7-isobutyl-6,9-dimethyl-N-(2-(3-methylisoxazol-5-yl)ethyl)-1,5,8,11-tetraoxo-1,2,3,4,5,6,7,8,9,10,11,12,13,14-tetradecahydronaphtho[1,2-p][1]oxa[4,7,10,14]tetraazacycloheptadecine-3-carboxamide] were, in that order, 144 nM and 313%.
With `Cc1cc(CCNC(=O)[C@@H]2CC(=O)N(C)[C@@H](CC(C)C)C(=O)N(C)[C@H](C3CCCC3)C(=O)N[C@H](Cc3ccccc3)COc3cnc4ccc(F)cc4c3C(=O)N2)on1` [Example 721, (3S,7S,10R,13R)-13-benzyl-10-cyclopentyl-20-fluoro-7-isobutyl-6,9-dimethyl-N-(2-(3-methylisoxazol-5-yl)ethyl)-1,5,8,11-tetraoxo-1,2,3,4,5,6,7,8,9,10,11,12,13,14-tetradecahydro-[1]oxa[4,7,10,14]tetraazacycloheptadecino[17,16-c]quinoline-3-carboxamide], the concentration giving a half-maximal response (EC50) was 142 nM and the Emax is 328%.
On the same counts, the results for `Cc1cc(CCNC(=O)[C@@H]2CC(=O)N(C)[C@@H](CC(C)C)C(=O)N(C)[C@H](Cc3ccccc3)C(=O)N[C@H](Cc3ccccc3)COc3cnc4ccc(F)cc4c3C(=O)N2)on1` [Example 722, (3S,7S,10R,13R)-10,13-Dibenzyl-20-fluoro-7-isobutyl-6,9-dimethyl-N-(2-(3-methylisoxazol-5-yl)ethyl)-1,5,8,11-tetraoxo-1,2,3,4,5,6,7,8,9,10,11,12,13,14-tetradecahydro-[1]oxa[4,7,10,14]tetraazacycloheptadecino[17,16-c]quinoline-3-carboxamide] are 101 nM and 347%.
On the same counts, the results for `COc1nccc2c1C(=O)N[C@H](C(=O)NCCc1nc(C3CC3)no1)CC(=O)N(C)[C@@H](CC(C)C)C(=O)N(C)[C@@H](COCc1ccccc1)C(=O)N[C@H](Cc1ccccc1)CO2` [Example 724, (3R,6RS,9S,13S)-3-benzyl-6-((benzyloxy)methyl)-N-(2-(3-cyclopropyl-1,2,4-oxadiazol-5-yl)ethyl)-9-isobutyl-16-methoxy-7,10-dimethyl-5,8,11,15-tetraoxo-2,3,4,5,6,7,8,9,10,11,12,13,14,15-tetradecahydropyrido[3,4-p][1]oxa[4,7,10,14]tetraazacycloheptadecine-13-carboxamide] are 93 nM and 345%.
The like results for `Cc1cc(CCNC(=O)[C@@H]2CC(=O)N(C)[C@@H](CC(C)C)C(=O)N3CCNC[C@@H]3C(=O)N[C@H](Cc3ccccc3)COc3ccc4ccccc4c3C(=O)N2)on1` [Example 725, (4aR,7R,18S,22S)-7-Benzyl-22-isobutyl-21-methyl-N-(2-(3-methylisoxazol-5-yl)ethyl)-5,16,20,23-tetraoxo-2,3,4,4a,5,6,7,8,16,17,18,19,20,21,22,23-hexadecahydro-1H-naphtho[1,2-p]pyrazino[2,1-f][1]oxa[4,7,10,14]tetraazacycloheptadecine-18-carboxamide] were, in that order, 1370 nM and 200%.
For `COc1cccc(CCNC(=O)[C@@H]2CC(=O)N(C)[C@@H](CC(C)C)C(=O)N3CCNC[C@@H]3C(=O)N[C@H](Cc3ccccc3)COc3ccc4ccccc4c3C(=O)N2)c1` [Example 726, (4aR,7R,18S,22S)-7-benzyl-22-isobutyl-N-(3-methoxyphenethyl)-21-methyl-5,16,20,23-tetraoxo-2,3,4,4a,5,6,7,8,16,17,18,19,20,21,22,23-hexadecahydro-1H-naphtho[1,2-p]pyrazino[2,1-f][1]oxa[4,7,10,14]tetraazacycloheptadecine-18-carboxamide], the EC50 was found to be 624 nM and the Emax amounted to 234%.
